Values of other authors in patent US20120321587A1, “COMPOSITIONS AND METHODS OF USE PERTAINING TO INSECTICIDE” (priority 2009, published 2012).

System: aphids
Details: nymphs and adults

Structure (SMILES)	efficacy in treating aphids
CCCCCCCCCCCCOS(=O)(=O)[O-].[Na+] [sodium lauryl sulfate]	limited efficacy
CCCCCCCCOC(=O)CC(C(=O)OCCCCCCCC)S(=O)(=O)O.[Na] (centres unmarked) [sodium dioctyl sulfosuccinate]	primary compound responsible for the observed insecticidal activity
